Where a name gives a salt, the structure may show the parent alone.
Each molecule was assayed against T1, recombinant human baculovirus-expressed GST-tagged FASN (Homo sapiens, UniProt P49327) (assay: biochemical). Settings: not given.
T1 construct: GST
T1 sequence (P49327 whole entry): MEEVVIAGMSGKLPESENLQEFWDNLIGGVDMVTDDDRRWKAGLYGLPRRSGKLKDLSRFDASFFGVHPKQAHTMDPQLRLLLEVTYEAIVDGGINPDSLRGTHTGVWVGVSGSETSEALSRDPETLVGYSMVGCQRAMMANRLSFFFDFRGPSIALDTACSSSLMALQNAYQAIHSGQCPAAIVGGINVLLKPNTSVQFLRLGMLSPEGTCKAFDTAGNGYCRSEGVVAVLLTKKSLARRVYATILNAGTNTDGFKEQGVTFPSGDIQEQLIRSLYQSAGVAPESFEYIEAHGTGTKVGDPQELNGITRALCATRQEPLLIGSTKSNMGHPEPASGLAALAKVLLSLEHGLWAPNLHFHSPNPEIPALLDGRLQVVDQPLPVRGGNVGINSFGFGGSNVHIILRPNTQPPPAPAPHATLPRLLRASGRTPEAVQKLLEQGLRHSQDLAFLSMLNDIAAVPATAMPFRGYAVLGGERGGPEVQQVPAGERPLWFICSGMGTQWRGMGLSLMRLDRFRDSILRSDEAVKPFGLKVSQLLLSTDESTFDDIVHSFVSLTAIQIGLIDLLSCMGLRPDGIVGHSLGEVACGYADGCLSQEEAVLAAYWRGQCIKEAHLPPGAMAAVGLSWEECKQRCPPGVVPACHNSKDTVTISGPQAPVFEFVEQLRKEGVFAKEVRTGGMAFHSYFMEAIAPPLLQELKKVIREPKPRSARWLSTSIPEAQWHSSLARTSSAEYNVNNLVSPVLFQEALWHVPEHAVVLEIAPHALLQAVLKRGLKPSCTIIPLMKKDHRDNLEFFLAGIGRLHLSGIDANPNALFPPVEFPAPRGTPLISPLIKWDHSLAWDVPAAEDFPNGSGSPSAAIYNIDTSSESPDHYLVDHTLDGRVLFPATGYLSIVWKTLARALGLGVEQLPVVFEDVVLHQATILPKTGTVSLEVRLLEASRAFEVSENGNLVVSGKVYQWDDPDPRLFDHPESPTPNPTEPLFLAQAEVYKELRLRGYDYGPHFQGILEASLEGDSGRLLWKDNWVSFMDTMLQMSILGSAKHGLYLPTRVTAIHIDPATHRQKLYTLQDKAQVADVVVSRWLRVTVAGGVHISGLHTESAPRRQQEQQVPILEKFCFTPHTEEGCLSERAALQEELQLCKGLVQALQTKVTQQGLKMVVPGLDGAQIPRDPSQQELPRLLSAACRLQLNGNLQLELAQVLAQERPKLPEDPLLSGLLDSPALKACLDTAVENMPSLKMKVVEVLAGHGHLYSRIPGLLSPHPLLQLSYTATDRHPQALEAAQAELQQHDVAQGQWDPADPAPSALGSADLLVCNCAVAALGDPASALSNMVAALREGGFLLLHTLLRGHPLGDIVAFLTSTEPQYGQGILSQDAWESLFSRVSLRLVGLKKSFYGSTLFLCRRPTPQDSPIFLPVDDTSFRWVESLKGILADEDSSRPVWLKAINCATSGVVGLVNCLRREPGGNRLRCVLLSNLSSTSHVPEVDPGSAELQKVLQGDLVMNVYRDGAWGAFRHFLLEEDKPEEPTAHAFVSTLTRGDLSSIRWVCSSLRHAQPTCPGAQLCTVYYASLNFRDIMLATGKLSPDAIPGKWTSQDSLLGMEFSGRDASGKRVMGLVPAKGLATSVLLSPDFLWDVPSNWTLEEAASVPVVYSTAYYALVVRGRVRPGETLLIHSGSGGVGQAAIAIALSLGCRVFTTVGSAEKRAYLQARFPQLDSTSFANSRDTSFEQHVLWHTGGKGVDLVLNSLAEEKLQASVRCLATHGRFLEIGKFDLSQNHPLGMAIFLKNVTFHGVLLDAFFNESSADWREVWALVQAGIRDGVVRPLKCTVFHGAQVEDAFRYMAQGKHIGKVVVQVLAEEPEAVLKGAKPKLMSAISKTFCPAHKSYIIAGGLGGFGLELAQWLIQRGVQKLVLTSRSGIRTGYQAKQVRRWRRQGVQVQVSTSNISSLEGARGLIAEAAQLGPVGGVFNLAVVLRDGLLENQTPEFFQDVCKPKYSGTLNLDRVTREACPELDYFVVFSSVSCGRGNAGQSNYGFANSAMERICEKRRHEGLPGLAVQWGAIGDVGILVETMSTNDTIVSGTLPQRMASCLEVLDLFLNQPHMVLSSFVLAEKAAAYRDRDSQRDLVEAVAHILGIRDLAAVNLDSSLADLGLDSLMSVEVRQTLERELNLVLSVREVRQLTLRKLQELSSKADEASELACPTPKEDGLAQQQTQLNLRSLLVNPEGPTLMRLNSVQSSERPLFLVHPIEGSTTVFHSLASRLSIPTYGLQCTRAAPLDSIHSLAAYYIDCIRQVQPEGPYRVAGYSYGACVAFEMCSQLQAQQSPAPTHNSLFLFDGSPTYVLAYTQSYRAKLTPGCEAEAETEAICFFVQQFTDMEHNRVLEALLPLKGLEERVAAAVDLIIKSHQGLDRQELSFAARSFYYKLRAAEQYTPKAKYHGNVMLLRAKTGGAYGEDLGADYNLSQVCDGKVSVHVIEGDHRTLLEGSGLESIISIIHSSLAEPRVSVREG

Structure (SMILES) | IC50 [µM]
Cc1nccc2cc(-c3ccc4c(c3)COC3(CCN(C(=O)[C@H]5CCCO5)CC3)O4)ccc12 [Example 23, [6-(1-Methyl-6-isoquinolyl)spiro[4H-1,3-benzodioxine-2,4′-piperidine]-1′-yl]-[(2R)-tetrahydrofuran-2-yl]methanone] | 0.001 to 0.099
CCC(=O)N1CCC2(CC1)OCc1cc(-c3cnc4cccnc4c3)ccc1O2 [Example 36, 1-[6-(1,5-Naphthyridin-3-yl)spiro[4H-1,3-benzodioxine-2,4′-piperidine]-1′-yl]propan-1-one] | 1 to 10
O=C(C1CC1)N1CCC2(CC1)OCc1cc(-c3ccc4cccnc4c3Cl)ccc1O2 [Example 58, [6-(8-Chloro-7-quinolyl)spiro[4H-1,3-benzodioxine-2,4′-piperidine]-1′-yl]-cyclopropyl-methanone] | 0.001 to 0.099
O=C([C@H]1CCCO1)N1CCC2(CC1)OCc1cc(-c3ccncc3)ccc1O2 [Example 231, [6-(4-Pyridyl)spiro[4H-1,3-benzodioxine-2,4′-piperidine]-1′-yl]-[(2R)-tetrahydrofuran-2-yl]methanone, HCl] | 0.1 to 0.999
CCOC(=O)N1CCC2(CC1)OCc1cc(-c3ccc4cccnc4c3)ccc1O2 [Example 30, Ethyl 6-(7-quinolyl)spiro[4H-1,3-benzodioxine-2,4′-piperidine]-1′-carboxylate] | 0.001 to 0.099
O=C(C1CC1)N1CCC2(CC1)OCc1cc(-c3cnc4ccccc4c3)ccc1O2 [Example 40, Cyclopropyl-[6-(3-quinolyl)spiro[4H-1,3-benzodioxine-2,4′-piperidine]-1′-yl]methanone] | 0.001 to 0.099
Cc1c(-c2ccc3c(c2)COC2(CCN(C(N)=O)CC2)O3)ccc2ccnn12 [Example 127, 6-(7-Methylpyrazolo[1,5-a]pyridin-6-yl)spiro[4H-1,3-benzodioxine-2,4′-piperidine]-1′-carboxamide] | 0.1 to 0.999
Cc1nccc2cc(-c3ccc4c(c3)COC3(CCN(C(=O)NO)CC3)O4)ccc12 [Example 199, 6-(1-Methyl-6-isoquinolyl)spiro[4H-1,3-benzodioxine-2,4′-piperidine]-1′-carbohydroxamic acid] | 1 to 10
CCOC(=O)N1CCC2(CC1)OCc1cc(-c3ccc4cccnc4c3OC)ccc1O2 [Example 176, Ethyl 6-(8-methoxy-7-quinolyl)spiro[4H-1,3-benzodioxine-2,4′-piperidine]-1′-carboxylate] | 0.1 to 0.999
CCNC(=O)N1CCC2(CC1)OCc1cc(-c3ccc4ccnn4c3C)ccc1O2 [Example 126, N-Ethyl-6-(7-methylpyrazolo[1,5-a]pyridin-6-yl)spiro[4H-1,3-benzodioxine-2,4′-piperidine]-1′-carboxamide] | 0.001 to 0.099
COc1c(-c2ccc3c(c2)COC2(CCN(C(N)=O)CC2)O3)ccc2cccnc12 [Example 174, 6-(8-Methoxy-7-quinolyl)spiro[4H-1,3-benzodioxine-2,4′-piperidine]-1′-carboxamide] | 0.001 to 0.099
Cc1c(-c2ccc3c(c2)COC2(CCN(C(=O)CO)CC2)O3)ccc2cccnc12 [Example 62, 2-Hydroxy-1-[6-(8-methyl-7-quinolyl)spiro[4H-1,3-benzodioxine-2,4′-piperidine]-1′-yl]ethanone] | 0.1 to 0.999
CONC(=O)N1CCC2(CC1)OCc1cc(-c3cnc4ccccc4c3C)ccc1O2 [Example 133, N-Methoxy-6-(4-methyl-3-quinolyl)spiro[4H-1,3-benzodioxine-2,4′-piperidine]-1′-carboxamide] | 0.001 to 0.099

Same assay, conditions: 5 nM FASN, 150 μM NADPH, 10 μM acetyl-CoA, 25 μM malonyl-CoA, 90 minutes incubation; read-out: IC50 data for Compounds of Formula I, Activity

Structure (SMILES) | IC50 [µM]
CCC(=O)N1CCC2(CCc3cc(-c4ccc5c(C)nccc5c4)ccc3O2)CC1 [Example 24, 1-[6-(1-Methyl-6-isoquinolyl)spiro[chromane-2,4′-piperidine]-1′-yl]propan-1-one] | 0.001 to 0.099
NC(=O)N1CCC2(CCc3cc(-c4cnc5sccc5c4)ccc3O2)CC1 [Example 85, 6-Thieno[2,3-b]pyridin-5-ylspiro[chromane-2,4′-piperidine]-1′-carboxamide] | 1 to 10
CCONC(=O)N1CCC2(CCc3cc(-c4ccc5cccnc5c4Cl)ccc3O2)CC1 [Example 69, 6-(8-chloro-7-quinolyl)-N-ethoxy-spiro[chromane-2,4′-piperidine]-1′-carboxamide] | 0.001 to 0.099
O=C(C1CC1)N1CCC2(CCc3cc(-c4ccncc4)ccc3O2)CC1 [Example 227, Cyclopropyl-[6-(4-pyridyl)spiro[chromane-2,4′-piperidine]-1′-yl]methanone, HCl] | 1 to 10
CONC(=O)N1CCC2(CCc3cc(-c4ccc5cccnc5c4C)cc(F)c3O2)CC1 [Example 238, 8-Fluoro-N-methoxy-6-(8-methyl-7-quinolyl)spiro[chromane-2,4′-piperidine]-1′-carboxamide] | 0.001 to 0.099
Cc1c(-c2ccc3c(c2)C(O)CC2(CCN(C(N)=O)CC2)O3)ccc2cccnc12 (stereo not shown) [Example 213, 4-Hydroxy-6-(8-methyl-7-quinolyl)spiro[chromane-2,4′-piperidine]-1′-carboxamide] | 0.1 to 0.999
CONC(=O)N1CCC2(CCc3cc(-c4ccc5cnc(C)cc5c4)ccc3O2)CC1 [Example 209, N-Methoxy-6-(3-methyl-6-isoquinolyl)spiro[chromane-2,4′-piperidine]-1′-carboxamide] | 0.001 to 0.099
COc1c(-c2ccc3c(c2)CC2(CCN(C(N)=O)CC2)O3)ccc2cccnc12 [Example 162, 5-(8-Methoxy-7-quinolyl)spiro[3H-benzofuran-2,4′-piperidine]-1′-carboxamide] | 1 to 10
Cc1c(-c2ccc3c(c2)CCC2(CCN(C(=O)[C@H]4CCCO4)CC2)O3)ccc2cccnc12 [Example 8, [6-(8-Methyl-7-quinolyl)spiro[chromane-2,4′-piperidine]-1′-yl]-[(2R)-tetrahydrofuran-2-yl]methanone, HCl] | 0.001 to 0.099
O=C([C@H]1CCCO1)N1CCC2(CCc3cc(-c4cccnc4)ccc3O2)CC1 [Example 223, [6-(3-Pyridyl)spiro[chromane-2,4′-piperidine]-1′-yl]-[(2R)-tetrahydrofuran-2-yl]methanone, HCl] | 0.1 to 0.999
CCC(=O)N1CCC2(CCc3cc(-c4ccc5cccnc5c4C)ccc3O2)CC1 [Example 6, 1-[6-(8-Methyl-7-quinolyl)spiro[chromane-2,4′-piperidine]-1′-yl]propan-1-one] | 0.001 to 0.099
Cc1c(-c2ccc3c(c2)CC2(CCN(C(N)=O)CC2)O3)ccc2ccnn12 [Example 164, 5-(7-Methylpyrazolo[1,5-a]pyridin-6-yl)spiro[3H-benzofuran-2,4′-piperidine]-1′-carboxamide] | 1 to 10
Cc1nccc2cc(-c3ccc4c(c3)CCC3(CCN(C(=O)NCC(C)C)CC3)O4)ccc12 [Example 178, N-Isobutyl-6-(1-methyl-6-isoquinolyl)spiro[chromane-2,4′-piperidine]-1′-carboxamide] | 0.001 to 0.099
Cc1nccc2cc(-c3ccc4c(c3)CCC3(CCN(C(=O)[C@H]5CCCO5)CC3)O4)ccc12 [Example 1, [6-(1-Methyl-6-isoquinolyl)spiro[chromane-2,4′-piperidine]-1′-yl]-[(2R)-tetrahydrofuran-2-yl]methanone, HCl] | 0.001 to 0.099
CONC(=O)N1CCC2(CCc3cc(-c4ccc5ccnn5c4C)ccc3O2)CC1 [Example 124, N-Methoxy-6-(7-methylpyrazolo[1,5-a]pyridin-6-yl)spiro[chromane-2,4′-piperidine]-1′-carboxamide] | 0.001 to 0.099
